Laboratory results from patent US20060020110A1, “Synthetic peptides that bind to the hepatitis B virus core and E antigens” (priority 2000, published 2006).
Read-outs that look alike come from different tables or passages of the source.

Key:
[1] = target: T1, HBcAg (Hepatitis B virus genotype D subtype ayw, UniProt P03146); conditions: for Binding to HBcAg (in words): support-bound peptides
From the text: (§1) One approach to rational drug design involves sequential amino acid deletion of a known binding partner starting from either the amino or carboxy termini. Amino-terminal deletions of the binding partners of SEQ. ID. Nos. 5 and 17 were made and these peptide fragments were joined to a support and analyzed for the ability to bind HBcAg. […] ID. […] The amino-terminal deletions of the peptide of SEQ. ID. […] The amino-terminal deletion products of the peptide of SEQ. ID. […] ID.
To determine whether a candidate binding partner bound to HBcAg and/or HbeAg, a multimeric support-based binding assay was performed. Accordingly, synthetic peptides corresponding to the VH and VL domains of the sequenced mAbs were passively adsorbed to 96 well microplates in serial dilutions starting at 200 μg/ml. The peptide coated plates were then incubated with HBcAg and HBeAg serially diluted in PBS-GT. The amount of HBcAg and HBeAg bound by the peptides was then detected using a mAb directed to an epitope common to HBcAg and HBeAg (See Sällberg et al., J General Virology 74:1335-1340 (1993), herein expressly incorportaed by reference in its entirety) diluted 1:3000 in PBS-GT. The quantity of bound mAb was determined by addition by peroxidase labeled rabbit anti-mouse IgG (P260, Dako A S, Denmark). The plates were developed by incubation with ortho-phenylene-diamine (Sigma) and the absorbance at 492 nm was evaluated.
The converse of an aspect of this experiment was also performed. That is, various dilutions of support-bound binding partners (SEQ. ID. Nos. 5, 16, 17, 28, and 29) were contacted with 10 μg/ml of HBcAg and binding was evaluated. ID.

[2] = target: T2, HBeAg (Hepatitis B virus genotype D subtype ayw, UniProt P0C573); test: Binding of HBeAg to support-bound peptides (EIA); conditions: antigen at concentrations as low as 0.67 μg/ml, TABLE 8
T2 construct: containing nine residues of pre-core and the 150 first residues of HBcAg; made in house

[3] = target: T1, HBcAg; conditions: peptide contacted with HBcAg prior to antibody; peptide 200 μg/ml
From the text: as §1
(§2) Variations of the characterization assays described above include competitive binding assays. […] Initial experiments were conducted by contacting binding partner to HBcAg prior to introducing the antibody. […] ID. […] ID. […] ID. […] ID. […] ID. […] ID.

[4] = target: T1, HBcAg
Procedure: as §2

[5] = system: mAb specific for HSV gG2; test: gG2 mAb binding to fusion peptide on solid phase
From the text: (§3) ID. […] The specificity exchangers provided in SEQ. ID. […] Similarly, the specificity exchangers provided in SEQ. ID.

[6] = target: T1, HBcAg; remark: listed apart in the source
Procedure: To evaluate the efficacy of the specificity exchangers described above, several binding assays using a mAb specific for HSV gG2 were conducted. In one assay, the various specificity exchangers were coated onto microtiterplates and were bound with the mAb specific for HSV gG2. […] ID. […] In another assay, HBcAg was coated onto microtiter plates, specificity exchanger was added (20 μg/well), and the binding of the mAb specific for HSV gG2 was determined. […] ID. […] In another binding assay, HBeAg was coated onto microtiter plates, specificity exchanger was added (20 μg/well), and the binding of the mAb specific for HSV gG2 was determined. […] ID. […] The characterization assays used to evaluate binding partners can also be used and/or modified for the analysis of the specificity exchangers.

[7] = target: T2, HBeAg; test: Redirection of HSV gG2 mAb to HBeAg on solid phase by fusion peptide in solution; assay type: binding
From the text: as §3

[8] = target: T1, HBcAg; remark: listed apart in the source
Procedure: Accordingly, the assay was conducted by mixing the antibody to be tested with the appropriate antigen and allowing binding to occur overnight. Subsequently, rabbit complement, which is consumed if the antibody binds the antigen and the complement, was added. To determine the amount of residual complement in the mixture, sheep erythrocytes and an antibody to sheep erythrocytes was added.

[9] = target: T3, serum HBeAg (Hepatitis B virus genotype D subtype ayw, UniProt P0C573); test: In vivo aggregation of serum HBeAg in HBeAg-transgenic mice; conditions: second group of experiments, i.p., final volume 0.5 ml
T3 construct: two HBeAg-transgenic mice; from tissue; host or cells: serum of HBeAg-transgenic mice (from Dr. David R Milich, The Scripps Research Institute)
Procedure: By using an animal model of HBV infection, the therapeutic efficacy of a specificity exchanger directed to HBV was determined. In a first group of experiments, two HBeAg-transgenic mice (obtained from Dr. David R Milich, The Scripps Research Institute, La Jolla, Calif.) were injected ip. with 500 μl of undiluted hybridoma supernatants. The mice were then bled on day zero, two, six and nine post-injection. Sera were then tested for the change in serum HBeAg levels as determined by EIA (Sorin Biomedica, Saluggia, Italy).

[10] = system: B cell - mediated antigen presentation of HBcAg to experienced T cells; test: Inhibition of B cell-mediated antigen presentation of HBcAg to experienced T cells; assay type: cell-based, Balb/c mice
Procedure: A characterization assay that was used to evaluate the ability of a binding partner to modulate a host immune system response to HBV was conducted as follows. Groups of Balb/c mice were immunized subcutaneously with 20 μg HBcAg. Ten days later, draining lymph nodes were harvested and experienced CD4^+ T cells were purified using anti-CD4 coated magnetic beads (Dynal A S, Oslo, Norway) according to the manufacturers instructions. Naïve B cells were obtained from syngeneic mice, which had not been immunized. These B cells were used as antigen presenting cells in the characterization assay.
The ability of the different mAbs and peptides to block B cell uptake and antigen presentation of HBcAg-peptides to HBcAg-specific CD4+ T cells was then tested in vitro. The cell populations were mixed at a B/T cell ratio of 1:5 and added at a final concentration of approximately 2.5×10^5 to 5.0×10^5 cells per well in a 96 well microplate. Approximately, 20 μg of HBcAg was preincubated with the binding partner. The binding partner mixtures were then added to the cells and the plates were incubated for 26 to 96 hours at 37° C. The effect of the binding partners on T cell proliferation was determined by monitoring [^3H] thymidine incorporation.

[11] = fusion peptide in solution 20 μg/well
[12] = specificity exchanger 20 μg/well

T1 sequence (P03146 whole entry, the tested form may be a part): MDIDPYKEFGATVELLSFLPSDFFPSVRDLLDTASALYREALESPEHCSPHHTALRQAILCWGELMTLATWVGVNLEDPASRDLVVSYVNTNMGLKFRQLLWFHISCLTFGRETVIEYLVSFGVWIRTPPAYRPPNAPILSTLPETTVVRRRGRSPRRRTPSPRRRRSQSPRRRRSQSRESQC
T3 sequence (P0C573 20-183): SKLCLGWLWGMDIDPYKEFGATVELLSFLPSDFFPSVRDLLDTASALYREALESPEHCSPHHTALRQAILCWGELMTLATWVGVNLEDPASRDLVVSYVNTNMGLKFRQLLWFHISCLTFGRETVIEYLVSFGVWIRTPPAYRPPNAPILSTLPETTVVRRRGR
T2 sequence (P0C573 21-179): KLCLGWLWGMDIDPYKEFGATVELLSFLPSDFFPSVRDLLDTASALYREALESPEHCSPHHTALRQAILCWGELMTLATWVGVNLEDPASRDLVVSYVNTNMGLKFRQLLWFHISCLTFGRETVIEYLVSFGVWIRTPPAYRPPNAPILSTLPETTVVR

LAVSLGQRATISCRASQSVS (Synthetically prepared amino acid sequence) [Peptide 13]
Binding of 10 μg/ml HBcAg to dilutions of support-bound peptide (in words) ([1]; at low concentrations, TABLE 9): appreciable binding at low concentrations | Binding to HBcAg (in words) ([1]; TABLE 7): high affinity | Binding to HBcAg (in words) ([1]; antigen at concentrations as low as 0.67 μg/ml, TABLE 8): appreciable binding | Binding to HBeAg (in words) [2]: appreciable binding | Inhibition of mAb 4-2 binding to HBcAg (in words) [3]: able to inhibit binding of mAb 4-2 | Competition with mAb 4-2 for binding to HBcAg (in words) ([4]; peptide 100 μg/ml in the presence of mAb 4-2): effectively competed with mAb 4-2 | Competition with mAb 4-2 for binding to HBcAg (in words) ([4]; peptide 200 μg/ml in the presence of mAb 4-2): significantly inhibited | Lowest peptide concentration that prevented binding of mAb 4-2 ([4]; peptide in the presence of mAb 4-2): 6.25 µg/mL

VKLSCKASGYIFTSHRGGPEE [SEQ. ID. No. 74]
gG2 mAb binding to indicated antigen on solid phase: fusion peptide ([5]; no addition of fusion peptide in solution): 0.884 | Binding of mAb specific for HSV gG2 to coated specificity exchanger (in words) ([5]; specificity exchanger coated onto microtiterplates): appreciably bound the mAb | gG2 mAb binding to indicated antigen on solid phase: HBcAg [6, 11]: 1.462 | Binding to immobilized HBcAg allowing binding of HSV gG2 mAb (in words) [6, 12]: appreciably bound the immobilized HBcAg | gG2 mAb binding to indicated antigen on solid phase: HBeAg [7, 11]: 1.727 | Binding to immobilized HBeAg allowing binding of HSV gG2 mAb (in words) [7, 12]: appreciably bound the immobilized HBeAg | Complement binding of mAb-specificity exchanger-HBcAg complex (in words) ([8]; HSV mAb and specificity exchanger at equimolar ratios): able to bind complement | Ability to inhibit binding of mAb 4-2 to HBcAg (in words) ([8]; complement binding assay): appreciably inhibited the binding of mAb 4-2 to HBcAg | Ability to inhibit binding of mAb 9C8 to HBcAg (in words) ([8]; complement binding assay): unable to compete away bound mAb 9C8 | Fold change in serum HBeAg levels as determined by EIA in HBeAg-Tg mice ([9]; day 0 from injection): 1 | Fold change in serum HBeAg levels as determined by EIA in HBeAg-Tg mice ([9]; day 1 from injection): 1.5 | Fold change in serum HBeAg levels as determined by EIA in HBeAg-Tg mice ([9]; day 3 from injection): 2.3 | Fold change in serum HBeAg levels as determined by EIA in HBeAg-Tg mice ([9]; day 6 from injection): 2.3 | Fold change in serum HBeAg levels as determined by EIA in HBeAg-Tg mice ([9]; day 9 from injection): 3.3 | Inhibition of B cell mediated antigen presentation of HBcAg to specific CD4+ T cells (in words) [10]: inhibited B cell mediated antigen presentation | cpm ([3H] thymidine incorporation, T cell proliferation) ([10]; T + B cells, 20 μg HBcAg preincubated with inhibitor, positive control 573, background 110): 345 cpm | % inhibition of APC ([10]; T + B cells, 20 μg HBcAg, calculated from cpm versus positive control and background proliferation): 49%
